The record followed here is patent publication US9919998B2, “Antibacterial agents: Nα-aroyl-N-aryl-phenylalaninamides” (priority 2014, dated 2018).

What all share (type): cell-based
Data set [1] concerns Mycobacterium smegmatis ATCC 19420. Nature of the data set: Broth microdilution MIC, M. smegmatis. The conditions noted are these: Mycolicibacterium smegmatis, ATCC19420, M. smegmatis ATCC 19420; read-out: MIC Mycobacterium smegmatis ATCC 19420. The source says:
MICs in Mycobacterium smegmatis ATCC 19420 and Mycobacterium smegmatis ATCC 19420 derivatives were quantified using broth microdilution assays as described [Clinical and Laboratory Standards Institute (CLSI/NCCLS) (2009) Methods for Dilution Antimicrobial Susceptibility Tests for Bacteria That Grow Aerobically; Approved Standard, Eighth Edition. CLIS Document M07-A8 (CLIS, Wayne Pa.)].
For orientation: Dilution methods test growth across graded concentrations, often in twofold steps.

Data set [2] deals with Mycobacterium avium ATCC 25291. Nature of the data set: Microplate Alamar Blue assay (MABA) MIC, M. avium. The conditions noted are these: ATCC25291, M. avium ATCC 25291. The source says:
(§1) Minimal inhibitory concentrations (MICs) in Mycobacterium tuberculosis H37Rv and Mycobacterium avium ATCC 25291 were quantified using microplate Alamar Blue assays as described (MABA; [Collins, L. & Franzblau, S. (1997) Microplate Alamar Blue assay versus BACTEC 460 system for high-throughput screening of compounds against Mycobacterium tuberculosis and Mycobacterium avium. Antimicrob. Agents Chemother. 41, 1004-1009]).

The subject of data set [3] is Mycobacterium tuberculosis H37Rv. Nature of the data set: Microplate Alamar Blue assay (MABA) MIC, M. tuberculosis. The conditions noted are these: read-out: MIC Mycobacterium tuberculosis H37Rv.
Text: as §1
On the technique in general: Resazurin is reduced to fluorescent resorufin, in cell work by metabolically active cells.

The subject of data set [4] is Vero E6 ATCC CRL1586 cells. Nature of the data set: Mammalian-cell cytotoxicity, minimal cytotoxic concentration (CellTiter96). The protocol: Minimal cytotoxic concentrations (MCCs) against mammalian cells in culture were determined using Vero E6 ATCC CRL1586 cells and the CellTiter96 assay kit (Promega, Inc.). […]

Converted amounts (≈) assume the structure as drawn. Bounds are passed on as bounds.

In general, MIC refers to the lowest concentration found to suppress growth. Consider `O=C(NC(Cc1ccc(O)cc1)C(=O)Nc1ccccc1N1CCNCC1)c1cccs1` (stereo not shown) [IX-219, N-(3-(4-hydroxyphenyl)-1-oxo-1-((2-(piperazin-1-yl)phenyl)amino)-propan-2-yl)thiophene-2-carboxamide], for which the minimal inhibitory concentration (MIC) was determined as 0.78 mg/L (≈ 1.73 µM) in data set [1], 3.12 mg/L (≈ 6.94 µM) in data set [2] and 1.56 mg/L (≈ 3.46 µM) in data set [3]. Besides, the “MCC mammalian cells Vero E6 ATCC CRL1586” value in data set [4] came out at 69 µg/mL.
The like results for `O=C(NC(Cc1ccc(O)cc1)C(=O)Nc1cc(F)ccc1N1CCNCC1)c1cccs1` (stereo not shown) [IX-222, N-(1-((5-fluoro-2-(piperazin-1-yl)phenyl)amino)-3-(4-hydroxyphen-yl)-1-oxopropan-2-yl)thiophene-2-carboxamide] were, in that order, 0.78 mg/L (≈ 1.66 µM), 1.56 mg/L (≈ 3.33 µM), 1.56 mg/L (≈ 3.33 µM) and 38 µg/mL.
The like results for `O=C(NC(Cc1ccccc1)C(=O)Nc1cccc2[nH]nnc12)c1ccccc1` (stereo not shown) [IX-223, N-(1-((1H-benzo[d][1,2,3]triazol-4-yl)amino)-1-oxo-3-phenylpropan-2-yl)benzamide] were, in that order, 0.78 mg/L (≈ 2.02 µM), 50 mg/L (≈ 130 µM), 25 mg/L (≈ 64.9 µM) and 64 µg/mL.
With `Cn1nnc2cccc(NC(=O)C(Cc3ccccc3)NC(=O)c3ccccc3)c21` (stereo not shown) [IX-224, N-(1-((1-methyl-1H-benzo[d][1,2,3]triazol-7-yl)amino)-1-oxo-3-phenylpropan-2-yl)benzamide], the minimal inhibitory concentration (MIC) stood at 0.39 mg/L (≈ 0.976 µM) in data set [1], 25 mg/L (≈ 62.6 µM) in data set [2] and 6.25 mg/L (≈ 15.6 µM) in data set [3]. For the same compound, the “MCC mammalian cells Vero E6 ATCC CRL1586” value in data set [4] is >100 µg/mL.
The like results for `Cn1ncc2c(NC(=O)C(Cc3ccccc3)NC(=O)c3ccccc3)cccc21` (stereo not shown) [IX-225, N-(1-((1-methyl-1H-indazol-4-yl)amino)-1-oxo-3-phenylpropan-2-yl)benzamide] were, in that order, 0.195 mg/L (≈ 0.489 µM), 1.56 mg/L (≈ 3.92 µM), 1.56 mg/L (≈ 3.92 µM) and 45 µg/mL.
The like results for `O=C(NC(Cc1ccccc1)C(=O)Nc1cccc2nc[nH]c12)c1ccccc1` (stereo not shown) [IX-230, N-(1-((1H-benzo[d]imidazol-7-yl)amino)-1-oxo-3-phenylpropan-2-yl)benzamide] were, in that order, 0.39 mg/L (≈ 1.01 µM), 25 mg/L (≈ 65 µM), 50 mg/L (≈ 130 µM) and 84 µg/mL.
Consider `Cn1ccc2cccc(NC(=O)C(Cc3ccccc3)NC(=O)c3ccccc3)c21` (stereo not shown) [IX-231, N-(1-((1-methyl-1H-indol-7-yl)amino)-1-oxo-3-phenylpropan-2-yl)benzamide], for which the minimum inhibitory concentration (MIC) in data set [1] was 1.56 mg/L (≈ 3.92 µM); in data set [2], > 50 mg/L; in data set [3], 25 mg/L (≈ 62.9 µM). Further, in data set [4], the “MCC mammalian cells Vero E6 ATCC CRL1586” value is >100 µg/mL.
For the compound `Cn1cnc2cccc(NC(=O)C(Cc3ccccc3)NC(=O)c3ccccc3)c21` (stereo not shown) [IX-232, N-(1-((1-methyl-1H-benzo[d]imidazol-7-yl)amino)-1-oxo-3-phenyl-propan-2-yl)benzamide], the MIC in data set [1] stood at 1.56 mg/L (≈ 3.92 µM); in data set [2], 25 mg/L (≈ 62.7 µM); in data set [3], 25 mg/L (≈ 62.7 µM). Besides, the “MCC mammalian cells Vero E6 ATCC CRL1586” value in data set [4] came to 96 µg/mL.
On to `O=C(NC(Cc1ccccc1)C(=O)Nc1cccc2ncsc12)c1ccccc1` (stereo not shown) [IX-234, N-(1-(benzo[d]thiazol-7-ylamino)-1-oxo-3-phenylpropan-2-yl)benz-amide], for which the values for the MIC in data set [1], in data set [2] and in data set [3] were 0.39 mg/L (≈ 0.971 µM), 3.12 mg/L (≈ 7.78 µM) and 3.12 mg/L (≈ 7.78 µM), respectively. In data set [4], the “MCC mammalian cells Vero E6 ATCC CRL1586” value is 80 µg/mL.
For the compound `O=C(NC(Cc1ccccc1)C(=O)Nc1cccc2[nH]ncc12)c1cccc2[nH]ccc12` (stereo not shown) [IX-241, N-(1-((1H-indazol-4-yl)amino)-1-oxo-3-phenylpropan-2-yl)-1H-indole-4-carboxamide], the MIC in data set [1] turned out to be 0.78 mg/L (≈ 1.84 µM); in data set [2], 12.5 mg/L (≈ 29.5 µM); in data set [3] it was 25 mg/L (≈ 59 µM). In addition, the “MCC mammalian cells Vero E6 ATCC CRL1586” value in data set [4] came out at 36 µg/mL.
The like results for `O=C(NC(Cc1ccccc1)C(=O)Nc1ccccc1N1CCNCC1)c1cccc2[nH]ccc12` (stereo not shown) [IX-242, N-(1-oxo-3-phenyl-1-((2-(piperazin-1-yl)phenyl)amino)propan-2-yl)-1H-indole-4-carboxamide] were, in that order, 0.04 mg/L (≈ 0.0855 µM), 0.78 mg/L (≈ 1.67 µM), 3.12 mg/L (≈ 6.68 µM) and 12 µg/mL.
Take `O=C(NC(Cc1ccccc1)C(=O)Nc1cc(F)ccc1N1CCNCC1)c1cccc2[nH]ccc12` (stereo not shown) [IX-243]: the figures for the minimal inhibitory concentration (MIC) in data set [1], in data set [2] and in data set [3] were 0.19 mg/L (≈ 0.391 µM), 0.78 mg/L (≈ 1.61 µM) and 6.25 mg/L (≈ 12.9 µM), respectively. Moreover, the “MCC mammalian cells Vero E6 ATCC CRL1586” value in data set [4] amounted to 11 µg/mL.
The like results for `COc1ccc(F)cc1NC(=O)C(Cc1ccccc1)NC(=O)c1cccc2[nH]ccc12` (stereo not shown) [IX-244, N-(1-((5-fluoro-2-methoxyphenyl)amino)-1-oxo-3-phenylpropan-2-yl)-1H-indole-4-carboxamide] were, in that order, 0.78 mg/L (≈ 1.81 µM), 3.12 mg/L (≈ 7.24 µM), 6.25 mg/L (≈ 14.5 µM) and 58 µg/mL.
The matching figures for `O=C(NC(Cc1ccc(O)cc1)C(=O)Nc1cc(F)ccc1N1CCNCC1)c1ccccc1` (stereo not shown) [IX-246, N-(1-((5-fluoro-2-(piperazin-1-yl)phenyl)amino)-3-(4-hydroxy-phenyl)-1-oxopropan-2-yl)benzamide]: 0.195 mg/L (≈ 0.422 µM), 0.78 mg/L (≈ 1.69 µM), 3.12 mg/L (≈ 6.76 µM) and 34 µg/mL.
The matching figures for `CC1CN(c2ccccc2NC(=O)C(Cc2ccccc2)NC(=O)c2ccccc2)CC(C)O1` (stereo not shown) [IX-265, N-(1-((2-(2,6-dimethylmorpholino)phenyl)amino)-1-oxo-3-phenyl-propan-2-yl)benzamide]: 1.56 mg/L (≈ 3.41 µM), 6.25 mg/L (≈ 13.7 µM), 6.25 mg/L (≈ 13.7 µM) and >100 µg/mL.
In the case of `CC1CN(c2ccccc2NC(=O)C(Cc2ccc(O)cc2)NC(=O)c2ccccc2)CC(C)O1` (stereo not shown) [IX-266, N-(1-((2-(2,6-dimethylmorpholino)phenyl)amino)-3-(4-hydroxy-phenyl)-1-oxopropan-2-yl)benzamide], the MIC in data set [1] was 1.56 mg/L (≈ 3.29 µM); in data set [2], 6.25 mg/L (≈ 13.2 µM); in data set [3], 6.25 mg/L (≈ 13.2 µM). For the same compound, the “MCC mammalian cells Vero E6 ATCC CRL1586” value in data set [4] was 71 µg/mL.
For `COc1ccc(Cl)cc1NC(=O)C(Cc1ccccc1)NC(=O)c1ccccc1F` (stereo not shown) [IX-278, N-(1-((5-chloro-2-methoxyphenyl)amino)-1-oxo-3-phenylpropan-2-yl)-2-fluorobenzamide], the MIC came to 0.39 mg/L (≈ 0.914 µM) in data set [1], 2.3 mg/L (≈ 5.39 µM) in data set [2] and 0.78 mg/L (≈ 1.83 µM) in data set [3]. Also, the “MCC mammalian cells Vero E6 ATCC CRL1586” value in data set [4] amounted to 29 µg/mL.
The matching figures for `COc1ccc(Cl)cc1NC(=O)C(Cc1ccccc1)NC(=O)c1ccccc1C` (stereo not shown) [IX-279, N-(1-((5-chloro-2-methoxyphenyl)amino)-1-oxo-3-phenylpropan-2-yl)-2-methylbenzamide]: 1.56 mg/L (≈ 3.69 µM), 0.78 mg/L (≈ 1.84 µM), 0.78 mg/L (≈ 1.84 µM) and 87 µg/mL.
The matching figures for `O=C(NC(Cc1ccccc1)C(=O)Nc1cccc2nc[nH]c12)c1ccccc1F` (stereo not shown) [IX-280, N-(1-((1H-benzo[d]imidazol-7-yl)amino)-1-oxo-3-phenylpropan-2-yl)-2-fluorobenzamide]: 1.56 mg/L (≈ 3.88 µM), 25 mg/L (≈ 62.1 µM), 12.5 mg/L (≈ 31.1 µM) and 78 µg/mL.
